Experimental data as given in PubChem BioAssay (NCI).
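Dose response: 5 concentrations. Exposure: 48 h. Format: 96-well plates. Endpoint: linear interpolation; highest concentration if not reached. TGI: total growth inhibition.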

Experiments:
Assay in all cases: DTP human tumour cell line panel, 48 h
[1] = tested on: U251 CNS
[2] = tested on: HOP-92 NSCLC
[3] = tested on: PC-3 prostate
[4] = tested on: IGROV1 ovarian
[5] = tested on: NCI-H460 lung
[6] = tested on: LOX IMVI melanoma
[7] = tested on: HCT-116 colon
[8] = tested on: OVCAR-5 ovarian
[9] = tested on: CAKI-1 renal
[10] = tested on: MDA-MB-231 breast
[11] = tested on: TK-10 renal
[12] = tested on: UO-31 renal
[13] = tested on: SNB-75 CNS
[14] = tested on: EKVX NSCLC
[15] = tested on: NCI-H522 lung
[16] = tested on: SK-OV-3 ovarian
[17] = tested on: SF-295 CNS
[18] = tested on: SW-620 colon
[19] = tested on: HS 578T breast
[20] = tested on: OVCAR-4 ovarian
[21] = tested on: BT-549 breast
[22] = tested on: NCI-H226 lung
[23] = tested on: MOLT-4 leukemia
[24] = tested on: ACHN renal
[25] = tested on: SR leukemia
[26] = tested on: OVCAR-3 ovarian
[27] = tested on: HOP-62 NSCLC
[28] = tested on: NCI/ADR-RES ovarian
[29] = tested on: T-47D breast
[30] = tested on: 786-0 renal
[31] = tested on: UACC-62 melanoma
[32] = tested on: M14 melanoma
[33] = tested on: COLO 205 colon
[34] = tested on: HT29 colon
[35] = tested on: OVCAR-8 ovarian
[36] = tested on: HCT-15 colon
[37] = tested on: SF-539 CNS
[38] = tested on: MCF7 breast
[39] = tested on: RXF 393 renal
[40] = tested on: MDA-MB-435
[41] = tested on: A498 renal
[42] = tested on: MALME-3M melanoma
[43] = tested on: KM12 colon
[44] = tested on: SK-MEL-5 melanoma
[45] = tested on: UACC-257 melanoma
[46] = tested on: A549 NSCLC
[47] = tested on: SK-MEL-2 melanoma
[48] = tested on: MDA-N
[49] = tested on: CCRF-CEM leukemia
[50] = tested on: RPMI-8226 leukemia
[51] = tested on: SNB-19 CNS
[52] = tested on: SF-268 CNS
[53] = tested on: K-562 leukemia
[54] = tested on: NCI-H23 lung
[55] = tested on: SN12C renal
[56] = tested on: DU-145 prostate
[57] = tested on: HL-60(TB) leukemia
[58] = tested on: HCC-2998 colon
[59] = tested on: SK-MEL-28 melanoma

Measured: TGI

Cn1c(COC(=O)NC2CCCCC2)c(COC(=O)NC2CCCCC2)c2ccc3ccccc3c21
71.6 µM: [54]
78.9 µM: [13]
32 µM: [41]
66.2 µM: [37]
93.4 µM: [47]
95.8 µM: [22]
31.5 µM: [15]
83.3 µM: [39]
62 µM: [28]
70.6 µM: [9]
53.6 µM: [24]
13.5 µM: [5]
not listed: [55] | [56] | [57] | [58] | [59]
> 100 µM: all other assays above

COc1cc(/C=C2\C(=O)N(c3ccc(Cl)cc3)C(c3ccccc3)S2(=O)=O)cc(OC)c1OC (stereo unspecified)
> 61.6 µM: [32]
99.3 µM: [43]
> 63.6 µM: [31] | [38]
23.1 µM: [40]
> 32.8 µM: [33]
> 70.7 µM: [49]
60.5 µM: [15]
> 96.7 µM: [27]
20.1 µM: [48]
> 22 µM: [44]
not listed: [4] | [25]
> 100 µM: all other assays above
